Test results: ChEMBL document CHEMBL3414448, “Advances in the discovery of novel antimicrobials targeting the assembly of bacterial cell division protein FtsZ” (Eur J Med Chem, 2015)

Assays:
[1] = biological target: T1, Cell division protein FtsZ (Escherichia coli K-12) (UniProt P0A9A6); assay: Inhibition of FtsZ in Escherichia coli assessed as Z-ring containing cells level at 4 and 8 ug/ml (reference value: 88%); parameters: scale not given: the % may be the effect or the level left
T1 sequence (whole entry): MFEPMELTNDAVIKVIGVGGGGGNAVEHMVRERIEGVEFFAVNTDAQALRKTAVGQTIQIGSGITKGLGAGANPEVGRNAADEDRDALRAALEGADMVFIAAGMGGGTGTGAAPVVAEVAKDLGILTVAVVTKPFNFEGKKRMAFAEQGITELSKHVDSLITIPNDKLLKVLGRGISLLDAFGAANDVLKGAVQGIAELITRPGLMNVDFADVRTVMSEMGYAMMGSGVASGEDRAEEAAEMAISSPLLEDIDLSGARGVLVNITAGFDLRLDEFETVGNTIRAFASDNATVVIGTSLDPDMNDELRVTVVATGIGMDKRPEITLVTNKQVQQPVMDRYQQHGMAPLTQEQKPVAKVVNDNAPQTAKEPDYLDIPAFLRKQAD

[2] = Inhibition of FtsZ (unknown origin) assessed as reduction in frequency of Z-rings per unit cell length; conditions: concentration not given here
[3] = biological target: T2, Cell division protein FtsZ (Bacillus subtilis (strain 168)) (UniProt P17865); assay: Inhibition of Bacillus subtilis FtsZ GTPase activity; conditions: concentration not given here
T2 sequence (whole entry): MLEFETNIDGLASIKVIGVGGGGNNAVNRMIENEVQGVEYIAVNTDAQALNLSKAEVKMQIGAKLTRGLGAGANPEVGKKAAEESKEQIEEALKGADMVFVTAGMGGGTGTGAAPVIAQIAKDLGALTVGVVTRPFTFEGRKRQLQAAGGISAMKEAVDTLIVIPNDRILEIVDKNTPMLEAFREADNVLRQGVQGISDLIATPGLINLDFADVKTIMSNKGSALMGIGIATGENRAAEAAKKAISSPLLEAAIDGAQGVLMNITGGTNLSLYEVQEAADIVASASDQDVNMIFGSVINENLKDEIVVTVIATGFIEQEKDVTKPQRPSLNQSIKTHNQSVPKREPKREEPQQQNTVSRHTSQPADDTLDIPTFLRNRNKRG

[4] = biological target: T1, Cell division protein FtsZ (Escherichia coli K-12); assay: Inhibition of Escherichia coli FtsZ assembly
[5] = biological target: T3, Cell division protein FtsZ (Staphylococcus aureus) (UniProt P0A031); assay: Inhibition of FtsZ in methicillin-resistant Staphylococcus aureus assessed as reduction in methicillin MIC (reference value: 32 ug/ml)
T3 sequence (whole entry): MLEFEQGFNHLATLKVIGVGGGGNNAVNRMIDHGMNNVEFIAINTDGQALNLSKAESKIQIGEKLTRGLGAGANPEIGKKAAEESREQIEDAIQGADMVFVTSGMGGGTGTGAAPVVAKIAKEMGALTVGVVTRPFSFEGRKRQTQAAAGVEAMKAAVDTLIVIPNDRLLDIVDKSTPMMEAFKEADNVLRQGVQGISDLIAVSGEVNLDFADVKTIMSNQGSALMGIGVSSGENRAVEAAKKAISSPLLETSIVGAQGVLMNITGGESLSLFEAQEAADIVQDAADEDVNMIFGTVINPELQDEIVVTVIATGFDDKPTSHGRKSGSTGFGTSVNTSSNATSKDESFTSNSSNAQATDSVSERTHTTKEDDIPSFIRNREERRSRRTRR

[6] = Activation of FtsZ (unknown origin) assessed as increase in enzyme GTPase activity at 30 uM

NCC[C@H](O)C(=O)N[C@@H]1C[C@H](N)[C@@H](O[C@H]2O[C@H](CN)[C@@H](O)[C@H](O)[C@H]2O)[C@H](O)[C@H]1O[C@H]1O[C@H](CO)[C@@H](O)[C@H](N)[C@H]1O
Activity [1]: 35%

COc1ccc2cc3[n+](cc2c1OC)CCc1cc2c(cc1-3)OCO2
inhibition [2]: 50%

O=C(Oc1cc(OC(=O)c2cc(O)cc(O)c2)c2ccccc2c1)c1cc(O)c(O)c(O)c1
inhibition [3]: < 20%

COc1ccc(/N=C/c2ccc(OC(C)=O)c(OC)c2[N+](=O)[O-])cc1
ID50 [4]: 2.1 µM

COc1c(OC(C)=O)ccc(/C=N/c2c(C(C)C)cccc2C(C)C)c1[N+](=O)[O-]
ID50 [4]: 7.6 µM

O=C(Oc1cc(OC(=O)c2ccc(O)c(Cl)c2)c2ccccc2c1)c1ccc(O)c(Cl)c1
inhibition [3]: < 20%

CC(C)c1c(O)ccc2c1CC[C@H]1C(C)(C)CCC[C@]21C
MIC [5]: 4 µg/mL

COc1cc(/C=C/C(=O)CC(=O)/C=C/c2ccc(O)c(OC)c2)ccc1O
Activity [6]: 35%
